Data on 14 compounds can be found in PubChem BioAssay AID248 (DTP/NCI, 2004).

The assay concerns L1210 leukemia ip in BDF1 mice, survival T/C. In words: NCI In Vivo Anticancer Drug Screen. Data for tumor model L1210 Leukemia (intraperitoneal) in B6D2F1 (BDF1) mice. The conditions noted are these: endpoint: mean survival time, higher = longer survival. An outline of the steps:
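Tumor was transplanted into mice, which were then dosed with test compound or vehicle alone. Survival was recorded for each group, and the treated figure was expressed relative to the control figure.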

[1] abbreviates: dose: 200.0 mg/kg/injection, schedule: Q04DX002 (ip), vehicle: Klucel (hydroxypropylcellulose) (HPC).
Where [2] appears, read: dose: 400.0 mg/kg/injection, schedule: Q04DX002 (ip), vehicle: Klucel (hydroxypropylcellulose) (HPC).
The mark [3] stands for this setting: dose: 100.0 mg/kg/injection, schedule: Q04DX003 (ip), vehicle: Klucel (hydroxypropylcellulose) (HPC).
[4] abbreviates: dose: 200.0 mg/kg/injection, schedule: Q04DX003 (ip), vehicle: Klucel (hydroxypropylcellulose) (HPC).
The mark [5] stands for this setting: dose: 100.0 mg/kg/injection, schedule: Q01DX001 (ip), vehicle: saline with Tween-80.
The mark [6] stands for this setting: dose: 200.0 mg/kg/injection, schedule: Q01DX001 (ip), vehicle: saline with Tween-80.
Setting [7] is: dose: 100.0 mg/kg/injection, schedule: Q01DX009 (ip), vehicle: Klucel (hydroxypropylcellulose) (HPC).
[8] abbreviates: dose: 200.0 mg/kg/injection, schedule: Q01DX009 (ip), vehicle: Klucel (hydroxypropylcellulose) (HPC).
Where [9] appears, read: dose: 50.0 mg/kg/injection, schedule: Q01DX009 (ip), vehicle: Klucel (hydroxypropylcellulose) (HPC).

Structures are written as SMILES. Values joined by “and” are separate entries in the source; they are usually repeats but may differ in a detail not shown here. Identical values can stand only once. Toxic doses and inconclusive results are not listed.

On to `CCCCCCCCCCCCCCCC[N+]1(CC)CCOCC1`, for which the T/C (dose: 5.0 mg/kg/injection, schedule: Q01DX001 (ip), vehicle: Klucel (hydroxypropylcellulose) (HPC)) was 97 % of control; the T/C (dose: 5.0 mg/kg/injection, schedule: Q01DX001 (ip), vehicle: saline) is 100 % of control; the T/C (dose: 5.0 mg/kg/injection, schedule: Q01DX009 (ip), vehicle: Klucel (hydroxypropylcellulose) (HPC)) was 98 % of control and 103 % of control; the T/C (dose: 10.0 mg/kg/injection, schedule: Q01DX001 (ip), vehicle: Klucel (hydroxypropylcellulose) (HPC)) was 113 % of control; the T/C (dose: 10.0 mg/kg/injection, schedule: Q01DX001 (ip), vehicle: saline) is 103 % of control; the T/C (dose: 10.0 mg/kg/injection, schedule: Q01DX009 (ip), vehicle: saline) was 121 % of control and 88 % of control. The T/C is 98 % of control and 108 % of control (dose: 10.0 mg/kg/injection, schedule: Q04DX002 (ip), vehicle: Klucel (hydroxypropylcellulose) (HPC)); 95 % of control (dose: 10.0 mg/kg/injection, schedule: Q04DX002 (ip), vehicle: saline); 111 % of control (dose: 20.0 mg/kg/injection, schedule: Q01DX001 (ip), vehicle: Klucel (hydroxypropylcellulose) (HPC)); 103 % of control (dose: 20.0 mg/kg/injection, schedule: Q01DX001 (ip), vehicle: saline); 98 % of control and 101 % of control (dose: 20.0 mg/kg/injection, schedule: Q04DX002 (ip), vehicle: Klucel (hydroxypropylcellulose) (HPC)); 102 % of control (dose: 20.0 mg/kg/injection, schedule: Q04DX002 (ip), vehicle: saline). The T/C reads like this: (dose: 40.0 mg/kg/injection, schedule: Q04DX002 (ip), vehicle: Klucel (hydroxypropylcellulose) (HPC)) 90 % of control; (dose: 40.0 mg/kg/injection, schedule: Q04DX002 (ip), vehicle: saline) 95 % of control and 98 % of control; under setting [1], 93 % of control; under setting [2], 88 % of control.
For `O=NN(CCCl)C(=O)NC1CSCSC1`, the T/C was 284 % of control (dose: 7.0 mg/kg/injection, schedule: Q01DX001 (ip), vehicle: other); 322 % of control (dose: 10.0 mg/kg/injection, schedule: Q01DX001 (ip), vehicle: other); 333 % of control (dose: 15.0 mg/kg/injection, schedule: Q01DX001 (ip), vehicle: other); 168 % of control (dose: 25.0 mg/kg/injection, schedule: Q01DX001 (ip), vehicle: other); 277 % of control (dose: 30.0 mg/kg/injection, schedule: Q01DX001 (ip), vehicle: other); 107 % of control (dose: 45.0 mg/kg/injection, schedule: Q01DX001 (ip), vehicle: other).
Turning to `Cc1nc(N)[nH]c(=O)c1CCCC#N`, the T/C reads like this: (dose: 100.0 mg/kg/injection, schedule: Q01DX001 (ip), vehicle: Klucel (hydroxypropylcellulose) (HPC)) 104 % of control; (dose: 100.0 mg/kg/injection, schedule: Q04DX002 (ip), vehicle: Klucel (hydroxypropylcellulose) (HPC)) 97 % of control and 109 % of control; under setting [3], 101 % of control; (dose: 200.0 mg/kg/injection, schedule: Q01DX001 (ip), vehicle: Klucel (hydroxypropylcellulose) (HPC)) 98 % of control; under setting [1], 93 % of control and 103 % of control; under setting [4], 112 % of control. Besides, the T/C is 100 % of control (dose: 400.0 mg/kg/injection, schedule: Q01DX001 (ip), vehicle: Klucel (hydroxypropylcellulose) (HPC)); 104 % of control and 90 % of control under setting [2].
In the case of `CCCCCCCCCCC1CC2CCCC3CCC4CCCC1C4C32` (stereo not drawn), the T/C was 95 % of control under setting [5]; 108 % of control under setting [6]; 100 % of control (dose: 400.0 mg/kg/injection, schedule: Q01DX001 (ip), vehicle: saline with Tween-80).
Take `Cc1ccc2ccccc2c1N(CC(=O)O)S(=O)(=O)c1ccccc1`: the T/C (dose: 100.0 mg/kg/injection, schedule: Q04DX003 (ip), vehicle: saline sonified) was 93 % of control; the T/C (dose: 200.0 mg/kg/injection, schedule: Q04DX003 (ip), vehicle: saline sonified) was 102 % of control; the T/C (dose: 400.0 mg/kg/injection, schedule: Q04DX003 (ip), vehicle: saline sonified) was 101 % of control.
For the compound `NC(N)=NN=C(c1ccc(F)cc1)c1ccc(F)cc1`, the T/C runs as follows: (dose: 4.0 mg/kg/injection, schedule: Q01DX Z (oral), vehicle: carboxymethylcellulose (CMC)) 111 % of control; (dose: 8.0 mg/kg/injection, schedule: Q01DX Z (oral), vehicle: carboxymethylcellulose (CMC)) 104 % of control; (dose: 10.0 mg/kg/injection, schedule: Q01DX001 (ip), vehicle: carboxymethylcellulose (CMC)) 100 % of control.
As to `COc1ccc(-c2cc(-c3ccccc3)c3ccccc3n2)c(OC)c1OC`, the T/C runs as follows: under setting [7], 100 % of control; under setting [8], 90 % of control; (dose: 400.0 mg/kg/injection, schedule: Q01DX009 (ip), vehicle: Klucel (hydroxypropylcellulose) (HPC)) 90 % of control.
As for `O=[N+]([O-])c1cccc(-c2nc3ncncc3[nH]2)c1`, the T/C runs as follows: (dose: 50.0 mg/kg/injection, schedule: Q01DX001 (ip), vehicle: saline with Tween-80) 102 % of control; under setting [5], 101 % of control; under setting [6], 98 % of control.
In the case of `O=C1NC(=O)C(c2ccccc2)(C2CCCC2)N1` (stereo not drawn), the T/C runs as follows: under setting [9], 93 % of control; under setting [7], 98 % of control; under setting [8], 96 % of control.
With `COC1(C)C(=O)Oc2c1c1ccccc1c1ccccc21` (stereo not drawn), the T/C is, setting by setting: (dose: 75.0 mg/kg/injection, schedule: Q01DX001 (ip), vehicle: carboxymethylcellulose (CMC)) 94 % of control; (dose: 150.0 mg/kg/injection, schedule: Q01DX001 (ip), vehicle: carboxymethylcellulose (CMC)) 89 % of control.
Regarding `O=C1c2cccc3cccc(c23)C1(Br)Br`, the T/C (dose: 75.0 mg/kg/injection, schedule: Q01DX001 (ip), vehicle: other) is 101 % of control and the T/C (dose: 150.0 mg/kg/injection, schedule: Q01DX001 (ip), vehicle: other) is 104 % of control.
Take `O=C1CC2CCCC1C2` (stereo not drawn): the T/C is 98 % of control (dose: 100.0 mg/kg/injection, schedule: Q01DX001 (ip), vehicle: saline); 109 % of control (dose: 200.0 mg/kg/injection, schedule: Q01DX001 (ip), vehicle: saline); 112 % of control (dose: 400.0 mg/kg/injection, schedule: Q01DX001 (ip), vehicle: saline).
On to `C=CCOCC(O)CN(CCC(C)C)CCC(C)C` (stereo not drawn), for which the T/C was 95 % of control (dose: 25.0 mg/kg/injection, schedule: Q01DX009 (ip), vehicle: Klucel (hydroxypropylcellulose) (HPC)); 97 % of control under setting [9]; 96 % of control and 100 % of control under setting [7]; 102 % of control under setting [3]; 91 % of control under setting [4].
In the case of `CC[C@]12CN3CCc4c([nH]c5ccccc45)[C@@](C(=O)OC)(c4cc5c(cc4OC)N(C)[C@H]4[C@@](O)(C(=O)OC)[C@H](OC(C)=O)[C@]6(CC)C=CCN7CC[C@]54[C@@H]76)CC(C3)[C@H]1O2` (stereo partly drawn), the T/C was 108 % of control (dose: 0.37 mg/kg/injection, schedule: Q01DX009 (ip), vehicle: saline); 100 % of control (dose: 0.75 mg/kg/injection, schedule: Q01DX009 (ip), vehicle: Klucel (hydroxypropylcellulose) (HPC)); 108 % of control (dose: 1.5 mg/kg/injection, schedule: Q01DX002 (ip), vehicle: saline); 105 % of control (dose: 1.5 mg/kg/injection, schedule: Q01DX009 (ip), vehicle: Klucel (hydroxypropylcellulose) (HPC)); 97 % of control and 108 % of control and 114 % of control (dose: 1.5 mg/kg/injection, schedule: Q01DX009 (ip), vehicle: saline); 115 % of control (dose: 3.0 mg/kg/injection, schedule: Q01DX002 (ip), vehicle: saline). Further, the T/C reads like this: (dose: 3.0 mg/kg/injection, schedule: Q01DX009 (ip), vehicle: Klucel (hydroxypropylcellulose) (HPC)) 110 % of control; (dose: 6.0 mg/kg/injection, schedule: Q01DX002 (ip), vehicle: saline) 117 % of control; (dose: 6.0 mg/kg/injection, schedule: Q01DX009 (ip), vehicle: Klucel (hydroxypropylcellulose) (HPC)) 107 % of control; (dose: 12.0 mg/kg/injection, schedule: Q01DX009 (ip), vehicle: Klucel (hydroxypropylcellulose) (HPC)) 115 % of control; (dose: 12.0 mg/kg/injection, schedule: Q01DX009 (ip), vehicle: saline) 95 % of control; (dose: 16.5 mg/kg/injection, schedule: Q04DX003 (ip), vehicle: saline with Tween-80) 106 % of control. The T/C (dose: 37.5 mg/kg/injection, schedule: Q04DX003 (ip), vehicle: saline) was 94 % of control.
